Reference: US20220177508A1, “C10-Cyclic Substituted 13-Membered Macrolides and Uses Thereof” (Zikani Therapeutics, Inc., priority 2018, published 2022)
Values after ≈ are worked out from the molar mass of the structure shown. Read-outs that look alike come from different tables or passages of the source.

Columns and labels:
Type in all cases: cell-based
P. aeruginosa MP-3 = experiment: Broth dilution MIC determination (CLSI), P. aeruginosa MP-3; details: Pseudomonas aeruginosa, MP3; strain MP-3, broth dilution
K. pneumoniae MP-546 = experiment: Broth dilution MIC determination (CLSI), K. pneumoniae MP-546; details: Klebsiella pneumoniae, MP546; strain MP-546, broth dilution
E. coli MP-4 = experiment: Broth dilution MIC determination (CLSI), E. coli MP-4; details: Escherichia coli
A. baumannii MP-15 = experiment: Broth dilution MIC determination (CLSI), A. baumannii MP-15; details: Acinetobacter baumannii, MP15; strain MP-15, broth dilution; read-out: MIC A. baumanii MP-15
S. aureus MP-12 = experiment: Broth dilution MIC determination (CLSI), S. aureus MP-12; details: Staphylococcus aureus, MP12; strain MP-12, broth dilution
[1] = MP4, strain MP-4, broth dilution, read-out: MIC E. coli MP-4

SMILES | MIC (P. aeruginosa MP-3) | MIC (K. pneumoniae MP-546) | MIC (E. coli MP-4; [1]) | MIC (A. baumannii MP-15) | MIC (S. aureus MP-12) | MIC (E. coli MP-4; MP4, read-out: MIC E. coli MP-4)
CO[C@]1(C)C[C@@H](C)CN(C)[C@H](C2CCN(C(=O)CNCC(C)C)CC2)COC(=O)C(C)C(=O)[C@H](C)[C@H]1O[C@@H]1O[C@H](C)C[C@H](N(C)C)[C@H]1O (stereo partly drawn) [Compound 107, (3R,6R,8R,9R,10R)-9-(((2S,3R,4S,6R)-4-(dimethylamino)-3-hydroxy-6-methyltetrahydro-2H-pyran-2-yl)oxy)-3-(1-(isobutylglycyl)piperidin-4-yl)-8-methoxy-4,6,8,10,12-pentamethyl-1-oxa-4-azacyclotridecane-11,13-dione] | > 32 µg/mL | 4 to 32 µg/mL (≈ 5.86 to 46.9 µM) | 4 to 32 µg/mL (≈ 5.86 to 46.9 µM) | > 32 µg/mL | > 32 µg/mL | 
CO[C@]1(C)C[C@@H](C)CN(C)[C@H](C2CN(CC3COC3)C2)COC(=O)C(C)(C)C(=O)[C@H](C)[C@H]1O[C@@H]1O[C@H](C)C[C@H](N(C)C)[C@H]1O [Compound 91, (3R,6R,8R,9R,10R)-9-(((2S,3R,4S,6R)-4-(dimethylamino)-3-hydroxy-6-methyltetrahydro-2H-pyran-2-yl)oxy)-8-methoxy-4,6,8,10,12,12-hexamethyl-3-(1-(oxetan-3-ylmethyl)azetidin-3-yl)-1-oxa-4-azacyclotridecane-11,13-dione] | > 32 µg/mL | 4 to 32 µg/mL (≈ 6.39 to 51.1 µM) | < 4 µg/mL | > 32 µg/mL | > 32 µg/mL | 
CO[C@]1(C)C[C@@H](C)CN(C)[C@@H]([C@H]2CCN(C)C2)COC(=O)C(C)(C)C(=O)[C@H](C)[C@H]1O[C@@H]1O[C@H](C)C[C@H](N(C)C)[C@H]1O [Compound 48, (3S,6R,8R,9R,10R)-9-(((2S,3R,4S,6R)-4-(Dimethylamino)-3-hydroxy-6-methyltetrahydro-2H-pyran-2-yl)oxy)-8-methoxy-4,6,8,10,12,12-hexamethyl-3-((S)-1-methylpyrrolidin-3-yl)-1-oxa-4-azacyclotridecane-11,13-dione] | > 32 µg/mL | < 4 µg/mL | < 4 µg/mL | > 32 µg/mL | 4 to 32 µg/mL (≈ 6.85 to 54.8 µM) | 
CCN1CCC[C@@H]([C@@H]2COC(=O)C(C)(C)C(=O)[C@H](C)[C@@H](O[C@@H]3O[C@H](C)C[C@H](N(C)C)[C@H]3O)[C@](C)(OC)C[C@@H](C)CN2C)C1 [Compound 117, (3R,6R,8R,9R,10R)-9-(((2S,3R,4S,6R)-4-(dimethylamino)-3-hydroxy-6-methyltetrahydro-2H-pyran-2-yl)oxy)-3-((R)-1-ethylpiperidin-3-yl)-8-methoxy-4,6,8,10,12,12-hexamethyl-1-oxa-4-azacyclotridecane-11,13-dione] | > 32 µg/mL | 4 to 32 µg/mL (≈ 6.54 to 52.3 µM) | 4 to 32 µg/mL (≈ 6.54 to 52.3 µM) | > 32 µg/mL | > 32 µg/mL | 
CO[C@]1(C)C[C@@H](C)CN(C)[C@H](C2CN(C(=O)CN3CC(F)(F)C3)C2)COC(=O)C(C)(C)C(=O)[C@H](C)[C@H]1O[C@@H]1O[C@H](C)C[C@H](N(C)C)[C@H]1O [Compound 154, (3R,6R,8R,9R,10R)-3-(1-(2-(3,3-difluoroazetidin-1-yl)acetyl)azetidin-3-yl)-9-(((2S,3R,4S,6R)-4-(dimethylamino)-3-hydroxy-6-methyltetrahydro-2H-pyran-2-yl)oxy)-8-methoxy-4,6,8,10,12,12-hexamethyl-1-oxa-4-azacyclotridecane-11,13-dione] | > 32 µg/mL | 4 to 32 µg/mL (≈ 5.81 to 46.5 µM) | < 4 µg/mL | > 32 µg/mL | 4 to 32 µg/mL (≈ 5.81 to 46.5 µM) | 
CO[C@]1(C)C[C@@H](C)CN(C)[C@@H]([C@@H]2CCN(C(=O)CN(C)C)C2)COC(=O)C(C)(C)C(=O)[C@H](C)[C@H]1O[C@@H]1O[C@H](C)C[C@H](N(C)C)[C@H]1O [Compound 169, (3S,6R,8R,9R,10R)-9-(((2S,3R,4S,6R)-4-(Dimethylamino)-3-hydroxy-6-methyltetrahydro-2H-pyran-2-yl)oxy)-3-((R)-1-(dimethylglycyl)pyrrolidin-3-yl)-8-methoxy-4,6,8,10,12,12-hexamethyl-1-oxa-4-azacyclotridecane-11,13-dione] | > 32 µg/mL | 4 to 32 µg/mL (≈ 6.11 to 48.9 µM) | < 4 µg/mL | > 32 µg/mL | 4 to 32 µg/mL (≈ 6.11 to 48.9 µM) | 
CO[C@]1(C)C[C@@H](C)CN(C)[C@H](C2CN(CC=C(C)C)C2)COC(=O)C(C)(C)C(=O)[C@H](C)[C@H]1O[C@@H]1O[C@H](C)C[C@H](N(C)C)[C@H]1O [Compound 155, (3R,6R,8R,9R,10R)-9-(((2S,3R,4S,6R)-4-(dimethylamino)-3-hydroxy-6-methyltetrahydro-2H-pyran-2-yl)oxy)-8-methoxy-4,6,8,10,12,12-hexamethyl-3-(1-(3-methylbut-2-en-1-yl)azetidin-3-yl)-1-oxa-4-azacyclotridecane-11,13-dione] | > 32 µg/mL | < 4 µg/mL |  | 4 to 32 µg/mL (≈ 6.41 to 51.3 µM) | 4 to 32 µg/mL (≈ 6.41 to 51.3 µM) | < 4 µg/mL
CO[C@]1(C)C[C@@H](C)CN(C)[C@@H]([C@H]2CCCN(C)C2)COC(=O)C(C)(C)C(=O)[C@H](C)[C@H]1O[C@@H]1O[C@H](C)C[C@H](N(C)C)[C@H]1O [Compound 89, (3S,6R,8R,9R,10R)-9-(((2S,3R,4S,6R)-4-(dimethylamino)-3-hydroxy-6-methyltetrahydro-2H-pyran-2-yl)oxy)-8-methoxy-4,6,8,10,12,12-hexamethyl-3-((S)-1-methylpiperidin-3-yl)-1-oxa-4-azacyclotridecane-11,13-dione] | > 32 µg/mL | > 32 µg/mL | 4 to 32 µg/mL (≈ 6.69 to 53.5 µM) | > 32 µg/mL | > 32 µg/mL | 

Continued, in another order:

MIC (P. aeruginosa MP-3) | MIC (K. pneumoniae MP-546) | MIC (E. coli MP-4; [1]) | MIC (A. baumannii MP-15) | MIC (S. aureus MP-12) | SMILES | MIC (E. coli MP-4; MP4, read-out: MIC E. coli MP-4)
> 32 µg/mL | < 4 µg/mL | < 4 µg/mL | > 32 µg/mL | 4 to 32 µg/mL (≈ 6.69 to 53.5 µM) | CCCN1CC([C@@H]2COC(=O)C(C)(C)C(=O)[C@H](C)[C@@H](O[C@@H]3O[C@H](C)C[C@H](N(C)C)[C@H]3O)[C@](C)(OC)C[C@@H](C)CN2C)C1 [Compound 76, (3R,6R,8R,9R,10R)-9-(((2S,3R,4S,6R)-4-(dimethylamino)-3-hydroxy-6-methyltetrahydro-2H-pyran-2-yl)oxy)-8-methoxy-4,6,8,10,12,12-hexamethyl-3-(1-propylazetidin-3-yl)-1-oxa-4-azacyclotridecane-11,13-dione] | 
> 32 µg/mL | > 32 µg/mL | 4 to 32 µg/mL (≈ 5.98 to 47.8 µM) | > 32 µg/mL | > 32 µg/mL | CO[C@]1(C)C[C@@H](C)CN(C)[C@H]([C@H]2CCCN(C(=O)CN(C)C)C2)COC(=O)C(C)(C)C(=O)[C@H](C)[C@H]1O[C@@H]1O[C@H](C)C[C@H](N(C)C)[C@H]1O [Compound 96, (3R,6R,8R,9R,10R)-9-(((2S,3R,4S,6R)-4-(dimethylamino)-3-hydroxy-6-methyltetrahydro-2H-pyran-2-yl)oxy)-3-((S)-1-(dimethylglycyl)piperidin-3-yl)-8-methoxy-4,6,8,10,12,12-hexamethyl-1-oxa-4-azacyclotridecane-11,13-dione] | 
> 32 µg/mL | > 32 µg/mL | 4 to 32 µg/mL (≈ 6.01 to 48.1 µM) | > 32 µg/mL | 4 to 32 µg/mL (≈ 6.01 to 48.1 µM) | CO[C@]1(C)C[C@@H](C)CN(C)[C@H](C2CCN(CC(F)(F)F)CC2)COC(=O)C(C)(C)C(=O)[C@H](C)[C@H]1O[C@@H]1O[C@H](C)C[C@H](N(C)C)[C@H]1O [Compound 92, (3R,6R,8R,9R,10R)-9-(((2S,3R,4S,6R)-4-(dimethylamino)-3-hydroxy-6-methyltetrahydro-2H-pyran-2-yl)oxy)-8-methoxy-4,6,8,10,12,12-hexamethyl-3-(1-(2,2,2-trifluoroethyl)piperidin-4-yl)-1-oxa-4-azacyclotridecane-11,13-dione] | 
> 32 µg/mL | 4 to 32 µg/mL (≈ 6.39 to 51.1 µM) | 4 to 32 µg/mL (≈ 6.39 to 51.1 µM) | > 32 µg/mL | > 32 µg/mL | CO[C@]1(C)C[C@@H](C)CN(C)[C@H]([C@@H]2CCCN(C(C)C)C2)COC(=O)C(C)(C)C(=O)[C@H](C)[C@H]1O[C@@H]1O[C@H](C)C[C@H](N(C)C)[C@H]1O [Compound 90, (3R,6R,8R,9R,10R)-9-(((2S,3R,4S,6R)-4-(dimethylamino)-3-hydroxy-6-methyltetrahydro-2H-pyran-2-yl)oxy)-3-((R)-1-isopropylpiperidin-3-yl)-8-methoxy-4,6,8,10,12,12-hexamethyl-1-oxa-4-azacyclotridecane-11,13-dione] | 
> 32 µg/mL | < 4 µg/mL | < 4 µg/mL | > 32 µg/mL | 4 to 32 µg/mL (≈ 6.54 to 52.3 µM) | CO[C@]1(C)C[C@@H](C)CN[C@H](C2CCN(C(C)C)CC2)COC(=O)C(C)(C)C(=O)[C@H](C)[C@H]1O[C@@H]1O[C@H](C)C[C@H](N(C)C)[C@H]1O [Compound 7, (3R,6R,8R,9R,10R)-9-(((2S,3R,4S,6R)-4-(Dimethylamino)-3-hydroxy-6-methyltetrahydro-2H-pyran-2-yl)oxy)-3-(1-isopropylpiperidin-4-yl)-8-methoxy-6,8,10,12,12-pentamethyl-1-oxa-4-azacyclotridecane-11,13-dione] | 
> 32 µg/mL | > 32 µg/mL | > 32 µg/mL | > 32 µg/mL | > 32 µg/mL | CO[C@]1(C)C[C@@H](C)CN(CC(C)C)[C@H](C2CN(C(=O)CN(C)C)C2)COC(=O)C(C)(C)C(=O)[C@H](C)[C@H]1O[C@@H]1O[C@H](C)C[C@H](N(C)C)[C@H]1O [Compound 27, (3R,6R,8R,9R,10R)-9-(((2S,3R,4S,6R)-4-(dimethylamino)-3-hydroxy-6-methyltetrahydro-2H-pyran-2-yl)oxy)-3-(1-(dimethylglycyl)azetidin-3-yl)-4-isobutyl-8-methoxy-6,8,10,12,12-pentamethyl-1-oxa-4-azacyclotridecane-11,13-dione] | 
> 32 µg/mL | > 32 µg/mL | > 32 µg/mL | > 32 µg/mL | > 32 µg/mL | CO[C@]1(C)C[C@@H](C)CN(C(C)=O)[C@H](C2CCN(C(C)C)CC2)COC(=O)C(C)(C)C(=O)[C@H](C)[C@H]1O[C@@H]1O[C@H](C)C[C@H](N(C)C)[C@H]1O [Compound 174, (3R,6R,8R,9R,10R)-4-Acetyl-9-(((2S,3R,4S,6R)-4-(dimethylamino)-3-hydroxy-6-methyltetrahydro-2H-pyran-2-yl)oxy)-3-(1-isopropylpiperidin-4-yl)-8-methoxy-6,8,10,12,12-pentamethyl-1-oxa-4-azacyclotridecane-11,13-dione] | 
